Measured values reported in patent US11059818B2, “Triazolopyridine inhibitors of myeloperoxidase” (BRISTOL-MYERS SQUIBB COMPANY, priority 2016, dated 2021).

Columns and labels:
myeloperoxidase [1] = molecular target: T1, myeloperoxidase (Homo sapiens (Human), UniProt P05164); assay: MPO Peroxidation Assay (Amplex Red Assay); format: biochemical; conditions: potency range class
Experimental: MPO Peroxidation Assay (Amplex Red Assay)
MPO peroxidation activity was measured in 100 mM KPi (pH 7.4) by utilizing the non-fluorescent reagent Amplex Red (Invitrogen Cat. #A12222) which can be oxidized to the highly fluorescent resorufin. Amplex Red is oxidized by the peroxidase action of MPO to resorufin. Reactions were carried out in 50 μL total volume by adding a 25 μL mixture of 200 pM myeloperoxidase and 40 nM H2O2(Sigma #349887) to 100 nL inhibitor in 100% DMSO in a 384 well Perkin Elmer Optiplate. Enzyme and compound were preincubated for ten minutes at rt.
After the ten minute preincubation, 25 μL of an Amplex Red mixture containing 200 μM Amplex Red and 10 mM H2O2 was added to the plate. Kinetic determinations were carried out immediately on a Perkin Elmer Envision (15 minute kinetic read, Ex: 535 nm, Em: 590 nm).
IC50 values were calculated by determining the slope of the linear portion of the kinetic trace (180-540 secs), and using that calculated slope to determine % inhibition occurring at each concentration of inhibitor using the following equation:
(§1) [formula] where A=minimal Y value (activity level of inhibited sample), B=maximal Y value (activity level of uninhibited sample), C=Log IC50, D=Hill Slope, x=concentration of inhibitor. MPO Chlorination Assay (APF Assay)

myeloperoxidase [2] = molecular target: T1, myeloperoxidase; assay: MPO Chlorination Assay (APF Assay); format: biochemical; conditions: potency range class
Experimental: as §1
MPO chlorination activity was measured in 100 mM KPi (pH 7.4) by utilizing the non-fluorescent reagent Aminophenyl fluorescein (APF, Invitrogen Cat. #A36003). APF is cleaved by (—OCl) to yield the fluorescent compound fluorescein. Reactions were carried out in 50 μL total volume by adding a 25 μL mixture of 200 pM myeloperoxidase and 120 mM NaCl to 100 nL inhibitor in 100% DMSO in a 384 well, non-binding surface clear bottom plate (Corning #3655). Enzyme, inhibitor, and chloride were preincubated for ten minutes at rt.
After the ten minute preincubation, 25 μL of an APF mixture containing […], 120 mM NaCl and 10 μM H2O2 was added to the plate using the internal dispensing system of a Hammatsu FDSS 6000. Kinetic determinations were carried out immediately on the FDSS 6000 (3 minute kinetic read, 1 read every second, ex: 485 nm, em: 535 nm). IC50 values for inhibitors were calculated by taking the slope of the linear portion of the kinetic measurement (20 seconds to ˜80-120 secs). […]
[formula] where A=minimal Y value (activity level of inhibited sample), B=maximal Y value (activity level of uninhibited sample), C=Log IC50, D=Hill Slope, x=concentration of inhibitor.

T1 sequence (P05164 49-745): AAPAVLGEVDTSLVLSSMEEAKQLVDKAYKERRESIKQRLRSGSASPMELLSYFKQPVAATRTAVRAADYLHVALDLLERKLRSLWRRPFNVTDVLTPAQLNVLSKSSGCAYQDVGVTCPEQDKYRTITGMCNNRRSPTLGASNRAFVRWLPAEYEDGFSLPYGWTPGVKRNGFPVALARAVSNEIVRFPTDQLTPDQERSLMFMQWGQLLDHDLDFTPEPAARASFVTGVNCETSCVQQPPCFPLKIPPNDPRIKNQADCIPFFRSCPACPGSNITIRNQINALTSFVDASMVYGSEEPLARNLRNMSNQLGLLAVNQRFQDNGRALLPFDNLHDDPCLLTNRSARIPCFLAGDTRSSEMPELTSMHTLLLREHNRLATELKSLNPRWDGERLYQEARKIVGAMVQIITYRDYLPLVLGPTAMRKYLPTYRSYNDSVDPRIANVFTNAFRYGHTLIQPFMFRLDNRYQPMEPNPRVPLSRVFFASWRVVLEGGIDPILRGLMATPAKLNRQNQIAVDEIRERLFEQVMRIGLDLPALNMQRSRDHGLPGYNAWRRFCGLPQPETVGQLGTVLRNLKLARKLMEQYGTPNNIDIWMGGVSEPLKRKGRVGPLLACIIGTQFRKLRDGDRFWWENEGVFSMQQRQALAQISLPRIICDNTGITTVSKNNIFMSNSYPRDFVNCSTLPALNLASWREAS

| Compound | IC50 (myeloperoxidase [1]) | IC50 (myeloperoxidase [2]) |
| --- | --- | --- |
| Nc1cc(C(CCN2C[C@H](Cc3ccccc3)[C@@H](O)C2)c2cnn(Cc3cccc(O)c3)c2)c2nn[nH]c2n1 (stereo partly shown) [Example 43] | 1 to 10 µM | 0.001 to 0.1 µM |
| CCC(c1cnn(Cc2cccc(O)c2)c1)c1cc(N)nc2[nH]nnc12 (stereo not shown) [Example 47] | 0.101 to 0.999 µM | 0.101 to 0.999 µM |
| Nc1cc(C(CCNCc2cccc(CO)c2)c2cnn(Cc3cccc(O)c3)c2)c2nn[nH]c2n1 (stereo not shown) [Example 48] | 1 to 10 µM | 0.101 to 0.999 µM |
| Nc1cc(C(CCNCc2cccc(O)c2)c2cnn(Cc3cccc(O)c3)c2)c2nn[nH]c2n1 (stereo not shown) [Example 49] | 1 to 10 µM | 0.101 to 0.999 µM |
| Nc1cc(C(CCNC23CCC(c4ccccc4)(CC2)CC3)c2cnn(CCc3cccc(O)c3)c2)c2nn[nH]c2n1 (stereo not shown) [Example 50] | 0.101 to 0.999 µM | 0.001 to 0.1 µM |
| Nc1cc(C(CCNC23CCC(c4ccccc4)(CC2)[C@H](O)C3)c2cnn(Cc3cccc(O)c3)c2)c2nn[nH]c2n1 (stereo partly shown) [Example 51] | 0.001 to 0.1 µM | 0.001 to 0.1 µM |
| Nc1cc(C(CCO)c2cnn(Cc3cccc(OC4CCC(N)C4)c3)c2)c2nn[nH]c2n1 (stereo not shown) [Example 55] | 0.101 to 0.999 µM | 0.101 to 0.999 µM |

Other lines, results leading:

| IC50 (myeloperoxidase [1]) | IC50 (myeloperoxidase [2]) | Compound |
| --- | --- | --- |
| 0.101 to 0.999 µM | 0.001 to 0.1 µM | Nc1cc(C(CCN[C@H]2CC[C@H](c3ccccc3)CC2)c2cccnc2)c2nn[nH]c2n1 (stereo partly drawn) [Example 34, 7-[1-(Pyridin-3-yl)-3-{[trans-4-phenylcyclohexyl]amino}propyl]-3H-[1,2,3]triazolo[4,5-b]pyridin-5-amine] |
| 0.101 to 0.999 µM | 0.001 to 0.1 µM | Nc1cc(C(CCN[C@H]2CC[C@H](c3ccccc3)CC2)c2cc[nH]c(=O)c2)c2nn[nH]c2n1 (stereo partly drawn) [Example 35, 4-(1-{5-Amino-3H-[1,2,3]triazolo[4,5-b]pyridin-7-yl}-3-{[trans-4-phenylcyclohexyl]amino}propyl)-1,2-dihydropyridin-2-one] |
| 1 to 10 µM | 0.101 to 0.999 µM | Nc1cc(C(CCN[C@H]2CC[C@H](c3ccccc3)CC2)c2cc[nH]n2)c2nn[nH]c2n1 (stereo partly drawn) [Example 36, 7-[1-(1H-Pyrazol-3-yl)-3-{[trans-4-phenylcyclohexyl]amino}propyl]-3H-[1,2,3]triazolo[4,5-b]pyridin-5-amine] |
| 0.001 to 0.1 µM | 0.001 to 0.1 µM | Nc1cc(C(CCN[C@@H]2C[C@@H](Cc3ccccc3)[C@H](O)C2)c2cnn(Cc3cccc(O)c3)c2)c2nn[nH]c2n1 (stereo partly drawn) [Example 42, 3-{[4-(1-{5-Amino-3H-[1,2,3]triazolo[4,5-b]pyridin-7-yl}-3-{[(1R,3R,4R)-3-benzyl-4-hydroxycyclopentyl]amino}propyl)-1H-pyrazol-1-yl]methyl}phenol] |
| 1 to 10 µM | 0.101 to 0.999 µM | Nc1cc(C(CCN[C@H]2CC[C@H](c3ccccc3)CC2)c2cncc(F)c2)c2nn[nH]c2n1 (stereo partly shown) [Example 44] |
| 0.101 to 0.999 µM | 0.101 to 0.999 µM | Nc1cc(C(CCN[C@H]2CC[C@H](c3ccccc3)CC2)c2ccc(F)nc2)c2nn[nH]c2n1 (stereo partly shown) [Example 45] |
| 0.101 to 0.999 µM | 0.101 to 0.999 µM | Nc1cc(C(CCNCc2ccccc2)c2cnn(Cc3cccc(O)c3)c2)c2nn[nH]c2n1 (stereo not shown) [Example 46] |
| 0.001 to 0.1 µM | 0.001 to 0.1 µM | Nc1cc(C(CCNC23CCC(c4ccccc4)(CC2)[C@@H](O)C3)c2cnn(Cc3cccc(O)c3)c2)c2nn[nH]c2n1 (stereo partly shown) [Example 52] |
| 1 to 10 µM | 0.101 to 0.999 µM | Nc1cc(C(CCN[C@@H]2CC[C@@H](Cc3ccccc3)C2)c2cnn(CCc3cccc(O)c3)c2)c2nn[nH]c2n1 (stereo partly shown) [Example 53] |
| 1 to 10 µM | 0.101 to 0.999 µM | Nc1cc(C(CCN[C@H]2C[C@H](Cc3ccccc3)[C@@H](O)C2)c2cnn(CCc3cccc(O)c3)c2)c2nn[nH]c2n1 (stereo partly shown) [Example 54] |
